Source: ChEMBL document CHEMBL1201862, “PubChem BioAssay data set” (2004)
The source made the active and inactive calls.

Legend:
CAAX prenyl protease 2 = CAAX prenyl protease 2 (Saccharomyces cerevisiae S288c, UniProt Q03530); type: biochemical
[1] = THP-1 cell cytotoxicity, dose response, cytotoxicity control for non-replicating M. tuberculosis project (AID 489025); type: functional
CAAX prenyl protease 1 = CAAX prenyl protease 1 (Saccharomyces cerevisiae S288c, UniProt P47154); assay: yeast CAAX protease Ste24 inhibition – biochemical, S. cerevisiae, plate reader, cherry-pick, dose response (AID 488815)
Vero [2] = assay: mammalian cell viability reduction – secondary assay, cytotoxicity control for West Nile virus antiviral project, dose response (AID 1650); type: functional; conditions: Chlorocebus sabaeus
[3] = HepG2 cell cytotoxicity, dose response, cytotoxicity control for non-replicating M. tuberculosis project (AID 489018); type: functional; conditions: Mycobacterium tuberculosis
Vero [4] = assay: cells; type: functional; conditions: Chlorocebus sabaeus
[5] = Luminescence Cell-Based Dose Retest to Confirm Inhibitors of Cancer Stem Cells. [Related pubchem assays (depositor defined):AID2717, AID2721]; type: functional; conditions: Homo sapiens
Vero [6] = assay: cells; type: functional, cell-based; conditions: Chlorocebus sabaeus

Chain of CAAX prenyl protease 2 (Q03530 whole entry): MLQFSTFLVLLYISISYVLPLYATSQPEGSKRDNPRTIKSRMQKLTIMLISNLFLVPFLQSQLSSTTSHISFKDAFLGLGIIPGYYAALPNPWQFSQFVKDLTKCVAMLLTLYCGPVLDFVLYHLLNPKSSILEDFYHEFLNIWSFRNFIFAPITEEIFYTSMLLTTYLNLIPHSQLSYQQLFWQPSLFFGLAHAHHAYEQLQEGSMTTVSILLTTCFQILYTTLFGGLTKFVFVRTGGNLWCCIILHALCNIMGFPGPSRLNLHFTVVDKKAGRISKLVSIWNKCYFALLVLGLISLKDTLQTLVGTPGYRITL
Chain of CAAX prenyl protease 1 (P47154 whole entry): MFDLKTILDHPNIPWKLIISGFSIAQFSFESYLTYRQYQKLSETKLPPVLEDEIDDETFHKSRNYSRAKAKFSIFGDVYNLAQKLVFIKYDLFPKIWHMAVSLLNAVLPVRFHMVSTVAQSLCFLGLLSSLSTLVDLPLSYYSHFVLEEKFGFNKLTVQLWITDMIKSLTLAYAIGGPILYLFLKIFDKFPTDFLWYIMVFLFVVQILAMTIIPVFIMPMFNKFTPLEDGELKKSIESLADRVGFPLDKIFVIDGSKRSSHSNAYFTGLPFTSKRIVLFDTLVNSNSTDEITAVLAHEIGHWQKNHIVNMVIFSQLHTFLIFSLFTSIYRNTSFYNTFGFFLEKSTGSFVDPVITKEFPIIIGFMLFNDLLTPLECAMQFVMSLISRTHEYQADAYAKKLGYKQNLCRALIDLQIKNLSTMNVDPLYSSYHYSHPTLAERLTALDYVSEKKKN

CCN(CC)CCNC(=O)c1[nH]c2ccc(OCc3ccccc3)cc2c1C
active: AC50 (CAAX prenyl protease 2) 14.1 µM | CC50 [1] 25.6 µM | AC50 (CAAX prenyl protease 1) 4.58 µM | CC50 (Vero [2]) 29.4 µM | CC50 [3] 17 µM | CC50 (Vero [4]) > 25 µM | AC50 [5] 1.18 µM | IC50 (Vero [6]) > 25 µM
